Test results taken from patent US10350281B2 (priority 2012, dated 2019).

Tested on: E. coli, Streptococcus sp. and Proteus sp. isolated from the xenic culture
Experiment: Antibiotic susceptibility tests (antibiotic discs) with bacterial strains isolated from the xenic culture
Conditions: strains isolated from original xenic culture (E. coli, Streptococcus sp., Proteus sp.)

| Compound | susceptibility tests of the bacterial strains |
| --- | --- |
| C[C@@H](O)[C@H]1C(=O)N2C(C(=O)O)=C(S[C@@H]3CN[C@H](C(=O)N(C)C)C3)[C@H](C)[C@H]12 [meropenem] | resistant to most antibiotics, except meropenem, neomycin and rifampicin |
| neomycin | resistant to most antibiotics, except meropenem, neomycin and rifampicin |
